From PubChem BioAssay AID2060905 (Molecular Pharmacology Branch, DTP, NCI, 2025)

Tested on: 282377-053-R-J1-PDC complex spheroid viability
Experiment: Anticancer human tumor 282377-053-R-J1-PDC patient-derived colon adenocarcinoma cell line growth inhibition [RAS]
Details: for IC50: curve of first compound; for viability, T/C: stronger effect = lower value
Method in brief: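 Tumour cells grown as complex spheroids with HUVEC endothelial cells and mesenchymal stem cells, treated with RAS pathway inhibitor combinations. Each agent spans half-log steps from near clinical Cmax, or 10 microM where Cmax is unknown.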

[1] = second compound 0.0316 µM, first compound 0.0316 µM
[2] = second compound 0.0316 µM, first compound 0.1 µM
[3] = second compound 0.0316 µM, first compound 0.316 µM
[4] = second compound 0.0316 µM, first compound 1 µM
[5] = second compound 0.0316 µM, first compound 3.16 µM
[6] = second compound 0.0316 µM, first compound 10 µM
[7] = second compound 0.1 µM, first compound 0.0316 µM
[8] = second compound 0.1 µM, first compound 0.1 µM
[9] = second compound 0.1 µM, first compound 0.316 µM
[10] = second compound 0.1 µM, first compound 1 µM
[11] = second compound 0.1 µM, first compound 3.16 µM
[12] = second compound 0.1 µM, first compound 10 µM
[13] = second compound 0.316 µM, first compound 0.0316 µM
[14] = second compound 0.316 µM, first compound 0.1 µM
[15] = second compound 0.316 µM, first compound 0.316 µM
[16] = second compound 0.316 µM, first compound 1 µM
[17] = second compound 0.316 µM, first compound 3.16 µM
[18] = second compound 0.316 µM, first compound 10 µM
[19] = second compound 1 µM, first compound 0.0316 µM
[20] = second compound 1 µM, first compound 0.1 µM
[21] = second compound 1 µM, first compound 0.316 µM
[22] = second compound 1 µM, first compound 1 µM
[23] = second compound 1 µM, first compound 3.16 µM
[24] = second compound 1 µM, first compound 10 µM
[25] = second compound 3.16 µM, first compound 0.0316 µM
[26] = second compound 3.16 µM, first compound 0.1 µM
[27] = second compound 3.16 µM, first compound 0.316 µM
[28] = second compound 3.16 µM, first compound 1 µM
[29] = second compound 3.16 µM, first compound 3.16 µM
[30] = second compound 3.16 µM, first compound 10 µM
[31] = second compound 10 µM, first compound 0.0316 µM
[32] = second compound 10 µM, first compound 0.1 µM
[33] = second compound 10 µM, first compound 0.316 µM
[34] = second compound 10 µM, first compound 1 µM
[35] = second compound 10 µM, first compound 3.16 µM
[36] = second compound 10 µM, first compound 10 µM
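Further: spheroids exposed to agents for seven days before readout.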
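Wherever viability, T/C is given: luminescence viability as percent of DMSO vehicle control wells.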

CCC(CC)c1cc(NC2CCC(N)C2)n2nccc2n1 (stereo not drawn) + C#Cc1c(F)ccc2cc(O)cc(-c3ncc4c(N5CC6CCC(C5)N6)nc(OCC56CCCN5CC(F)C6)nc4c3F)c12
IC50 (second compound 0.0316 µM): 1.97 µM | IC50 (second compound 0.1 µM): 2.02 µM | IC50 (second compound 0.316 µM): 1.86 µM | IC50 (second compound 1 µM): 1.7 µM | IC50 (second compound 3.16 µM): 1.91 µM | IC50 (second compound 10 µM): 1.76 µM | viability, T/C [1]: 113% | viability, T/C [2]: 120% | viability, T/C [3]: 89.4% | viability, T/C [4]: 111% | viability, T/C [5]: 9.2% | viability, T/C [6]: 2.06% | viability, T/C [7]: 113% | viability, T/C [8]: 123% | viability, T/C [9]: 94.9% | viability, T/C [10]: 118% | viability, T/C [11]: 10.2% | viability, T/C [12]: 2.09% | viability, T/C [13]: 107% | viability, T/C [14]: 102% | viability, T/C [15]: 81.3% | viability, T/C [16]: 96.9% | viability, T/C [17]: 9.63% | viability, T/C [18]: 2.11% | viability, T/C [19]: 103% | viability, T/C [20]: 95.4% | viability, T/C [21]: 86.8% | viability, T/C [22]: 84.6% | viability, T/C [23]: 9.29% | viability, T/C [24]: 2.23% | viability, T/C [25]: 99.5% | viability, T/C [26]: 112% | viability, T/C [27]: 104% | viability, T/C [28]: 100% | viability, T/C [29]: 10.8% | viability, T/C [30]: 2.69% | viability, T/C [31]: 101% | viability, T/C [32]: 95.9% | viability, T/C [33]: 96.3% | viability, T/C [34]: 89.4% | viability, T/C [35]: 9.18% | viability, T/C [36]: 3.74%

Cc1nc(N2CCC3(CC2)COC(C)C3N)c(CO)nc1Sc1ccnc(N)c1Cl (stereo not drawn) + C#Cc1c(F)ccc2cc(O)cc(-c3ncc4c(N5CC6CCC(C5)N6)nc(OCC56CCCN5CC(F)C6)nc4c3F)c12
IC50 (second compound 0.0316 µM): > 10 µM | IC50 (second compound 0.1 µM): > 10 µM | IC50 (second compound 0.316 µM): > 10 µM | IC50 (second compound 1 µM): > 10 µM | IC50 (second compound 3.16 µM): > 10 µM | IC50 (second compound 10 µM): > 10 µM | viability, T/C [1]: 101% | viability, T/C [2]: 120% | viability, T/C [3]: 114% | viability, T/C [4]: 113% | viability, T/C [5]: 95.9% | viability, T/C [6]: 87.3% | viability, T/C [7]: 109% | viability, T/C [8]: 107% | viability, T/C [9]: 88.7% | viability, T/C [10]: 89.8% | viability, T/C [11]: 99.5% | viability, T/C [12]: 89.4% | viability, T/C [13]: 107% | viability, T/C [14]: 114% | viability, T/C [15]: 95% | viability, T/C [16]: 100% | viability, T/C [17]: 114% | viability, T/C [18]: 101% | viability, T/C [19]: 116% | viability, T/C [20]: 110% | viability, T/C [21]: 110% | viability, T/C [22]: 86% | viability, T/C [23]: 98% | viability, T/C [24]: 85% | viability, T/C [25]: 99.3% | viability, T/C [26]: 103% | viability, T/C [27]: 89.8% | viability, T/C [28]: 111% | viability, T/C [29]: 98.2% | viability, T/C [30]: 120% | viability, T/C [31]: 110% | viability, T/C [32]: 116% | viability, T/C [33]: 114% | viability, T/C [34]: 98.5% | viability, T/C [35]: 85.8% | viability, T/C [36]: 131%

NC1c2ccccc2OC12CCN(c1cnc3c(N4CCCc5ncccc54)n[nH]c3n1)CC2 (stereo not drawn) + C#Cc1c(F)ccc2cc(O)cc(-c3ncc4c(N5CC6CCC(C5)N6)nc(OCC56CCCN5CC(F)C6)nc4c3F)c12
IC50 (second compound 0.0316 µM): > 10 µM | IC50 (second compound 0.1 µM): > 10 µM | IC50 (second compound 0.316 µM): > 10 µM | IC50 (second compound 1 µM): > 10 µM | IC50 (second compound 3.16 µM): > 10 µM | IC50 (second compound 10 µM): > 10 µM | viability, T/C [1]: 92.2% | viability, T/C [2]: 91.7% | viability, T/C [3]: 111% | viability, T/C [4]: 104% | viability, T/C [5]: 88.3% | viability, T/C [6]: 67.5% | viability, T/C [7]: 90.7% | viability, T/C [8]: 85.5% | viability, T/C [9]: 99.2% | viability, T/C [10]: 71.9% | viability, T/C [11]: 110% | viability, T/C [12]: 73% | viability, T/C [13]: 105% | viability, T/C [14]: 87.4% | viability, T/C [15]: 78.4% | viability, T/C [16]: 95.6% | viability, T/C [17]: 94.8% | viability, T/C [18]: 78.7% | viability, T/C [19]: 83% | viability, T/C [20]: 88.1% | viability, T/C [21]: 106% | viability, T/C [22]: 92.5% | viability, T/C [23]: 85.1% | viability, T/C [24]: 83% | viability, T/C [25]: 90.4% | viability, T/C [26]: 96% | viability, T/C [27]: 99.6% | viability, T/C [28]: 86.5% | viability, T/C [29]: 90.4% | viability, T/C [30]: 77.1% | viability, T/C [31]: 115% | viability, T/C [32]: 105% | viability, T/C [33]: 108% | viability, T/C [34]: 84.7% | viability, T/C [35]: 109% | viability, T/C [36]: 81.6%

Nc1ccn(C2OC(CO)C(O)C2(F)F)c(=O)n1 (stereo not drawn) + C#Cc1c(F)ccc2cc(O)cc(-c3ncc4c(N5CC6CCC(C5)N6)nc(OCC56CCCN5CC(F)C6)nc4c3F)c12
IC50 (second compound 0.0316 µM): 0.633 µM | IC50 (second compound 0.1 µM): 0.251 µM | IC50 (second compound 0.316 µM): 0.44 µM | IC50 (second compound 1 µM): 0.258 µM | IC50 (second compound 3.16 µM): 0.544 µM | IC50 (second compound 10 µM): > 1 µM | viability, T/C (second compound 0.0316 µM, first compound 0.00316 µM): 133% | viability, T/C (second compound 0.0316 µM, first compound 0.01 µM): 117% | viability, T/C [1]: 85.4% | viability, T/C [2]: 79.5% | viability, T/C [3]: 59% | viability, T/C [4]: 43.1% | viability, T/C (second compound 0.1 µM, first compound 0.00316 µM): 96% | viability, T/C (second compound 0.1 µM, first compound 0.01 µM): 89.7% | viability, T/C [7]: 101% | viability, T/C [8]: 76.8% | viability, T/C [9]: 44.6% | viability, T/C [10]: 37.9% | viability, T/C (second compound 0.316 µM, first compound 0.00316 µM): 115% | viability, T/C (second compound 0.316 µM, first compound 0.01 µM): 92.5% | viability, T/C [13]: 99.4% | viability, T/C [14]: 77% | viability, T/C [15]: 51.1% | viability, T/C [16]: 42.3% | viability, T/C (second compound 1 µM, first compound 0.00316 µM): 100% | viability, T/C (second compound 1 µM, first compound 0.01 µM): 101% | viability, T/C [19]: 107% | viability, T/C [20]: 69.6% | viability, T/C [21]: 51.3% | viability, T/C [22]: 40.2% | viability, T/C (second compound 3.16 µM, first compound 0.00316 µM): 89.8% | viability, T/C (second compound 3.16 µM, first compound 0.01 µM): 86% | viability, T/C [25]: 89.1% | viability, T/C [26]: 73.1% | viability, T/C [27]: 56.6% | viability, T/C [28]: 43.3% | viability, T/C (second compound 10 µM, first compound 0.00316 µM): 99.2% | viability, T/C (second compound 10 µM, first compound 0.01 µM): 99.3% | viability, T/C [31]: 92.8% | viability, T/C [32]: 69.8% | viability, T/C [33]: 62.5% | viability, T/C [34]: 54.5%
